Reference: ChEMBL document CHEMBL1137379, “9-{[3-fluoro-2-(hydroxymethyl)cyclopropylidene]methyl}adenines and -guanines. Synthesis and antiviral activity of all stereoisomers1” (J Med Chem, 2006)
Active and inactive are the calls of the source. No cut-off for these calls is given here.

Experiments:
[1] = target: T1, Adenosine deaminase (Bos taurus) (UniProt P56658); assay: Activity at calf intestine ADA by adenosine deaminase assay after 24 hrs
T1 sequence (whole entry): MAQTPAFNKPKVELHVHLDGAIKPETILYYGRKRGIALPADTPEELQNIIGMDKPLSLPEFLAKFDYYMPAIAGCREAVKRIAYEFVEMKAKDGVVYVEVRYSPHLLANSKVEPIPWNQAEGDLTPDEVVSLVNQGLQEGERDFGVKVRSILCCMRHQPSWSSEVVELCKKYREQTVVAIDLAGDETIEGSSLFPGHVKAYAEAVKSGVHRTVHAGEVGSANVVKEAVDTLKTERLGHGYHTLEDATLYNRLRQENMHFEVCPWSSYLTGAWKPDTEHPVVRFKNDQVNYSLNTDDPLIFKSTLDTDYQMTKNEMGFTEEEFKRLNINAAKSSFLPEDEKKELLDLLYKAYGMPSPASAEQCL

[2] = target: T1, Adenosine deaminase (Bos taurus); assay: Activity at calf intestine ADA by adenosine deaminase assay after 48 hrs
Daudi = assay: Cytotoxicity against Daudi cells; format: functional; details: Homo sapiens
Human gammaherpesvirus 4 [3] = assay: Inhibition of EBV replication in Daudi cells by viral capsid antigen-ELISA; format: functional, organism-based; details: human gammaherpesvirus 4, Daudi
KB = assay: Cytotoxicity against KB cells; format: functional; details: Homo sapiens
Human alphaherpesvirus 1 = assay: Inhibition of HSV1 replication in BSC1 cells by ELISA; format: functional, organism-based; details: Human alphaherpesvirus 1, BSC-1
HFF = assay: Cytotoxicity against HFF cell by neutral red uptake assay; format: functional; details: Homo sapiens
Human betaherpesvirus 5 [4] = assay: Inhibition of HCMV AD169 replication in HFF cells by cytopathic effect assay; format: functional, organism-based; details: Human betaherpesvirus 5, AD169, HFF
Human gammaherpesvirus 4 [5] = assay: Inhibition of EBV replication in H1 cells by DNA hybridization assay; format: functional, organism-based; details: human gammaherpesvirus 4, H1
Human betaherpesvirus 5 [6] = assay: Inhibition of HCMV towne replication in HFF cells by plaque reduction assay; format: functional, organism-based; details: Human betaherpesvirus 5, Towne
Hepatitis B virus = assay: Inhibition of HBV replication in 2.2.15 cells by DNA hybridization assay; format: functional, organism-based; details: HepG2 2.2.15
HepG2 = assay: Cytotoxicity against 2.2.15 cells; format: functional; details: Homo sapiens
[7] = tested on: Human immunodeficiency virus 1; assay: Inhibition of HIV1 LAI replication in MT2 cells by cytopathic effect assay; format: functional, organism-based; details: Human immunodeficiency virus 1, LAI
MT2 = assay: Cytotoxicity against MT2 cells; format: functional; details: Homo sapiens

For Nc1ncnc2c1ncn2/C=C1/[C@@H](CO)[C@H]1F (relative stereo), the Activity [1] was 50%.

With Nc1ncnc2c1ncn2/C=C1/[C@@H](F)[C@@H]1CO (relative stereo) the Activity [1] was 50%.

In the case of Nc1ncnc2c1ncn2/C=C1/[C@@H](F)[C@H]1CO (relative stereo), the Activity [1] is reported as 50%.

In the case of Nc1ncnc2c1ncn2/C=C1\[C@H](F)[C@H]1CO (relative stereo), the Activity [2] is reported as “inactive”.

Nc1nc2c(ncn2COCCO)c(=O)[nH]1 [ACYCLOVIR] showed a CC50 (Daudi) of over 100000 nM, an EC50 (Human gammaherpesvirus 4 [3]) of 330 nM and a CC50 (KB) of over 100000 nM. It also gave an EC50 (Human alphaherpesvirus 1) of 3500 nM.

Nc1nc2c(ncn2COC(CO)CO)c(=O)[nH]1 [GANCICLOVIR] showed a CC50 (HFF) of over 100000 nM, an EC50 (Human betaherpesvirus 5 [4]) of 150 nM and an EC50 (Human gammaherpesvirus 4 [5]) of 5000 nM. The EC50 (Human betaherpesvirus 5 [6]) was 1800 nM.

Nc1ccn([C@@H]2CS[C@H](CO)O2)c(=O)n1 [LAMIVUDINE] was tested, and the EC50 (Hepatitis B virus) was 20 nM and the CC50 (HepG2) was over 100000 nM.

Cc1cn([C@H]2C[C@H](N=[N+]=[N-])[C@@H](CO)O2)c(=O)[nH]c1=O [ZIDOVUDINE] gave an EC50 [7] of 20 nM and a CC50 (MT2) of over 10000 nM.
